Data set [1] relates to human epidermoid carcinoma A431. The data set is described as follows: Growth inhibition against human epidermoid carcinoma A431 cells (MTT). It counts as cell-based. The note with it: A-431, 72 hours. As to the method:
(§1) Growth inhibition against human mammary carcinoma MCF-7, human cystocarcinoma T24, human epidermoid carcinoma A431 and human renal carcinoma ACHN cells:
(§2) Respective cells were dispensed into a 96 well microtiter plate (Nunc #167008) in 1×10^3 cells/well portions in the case of MCF-7 and T24 or in 1.5×lO^3 cells/well portions in the case of A431 and ACHN and cultured at 37° C. for 24 hours in a 5% carbon dioxide incubator. Thereafter, 30 mM of UCS1025A and 30 mM of UCS1025B were each serially diluted and added to the wells in 50 μl portions. The final concentration of each solution becomes 100 μM at the maximum at this stage. They were cultured again at 37° C. for 72 hours in the 5% carbon dioxide incubator. Five hours prior to the completion of the culturing, MTT [3-(4,5-dimethylthiazo-2-yl)-2,5-diphenyltetrazolium bromide, Sigma] which had been dissolved in the culture to a final concentration of 1 mg/ml was dispensed into the plate in 50 μl/well portions. After completion of the culturing, DMSO was dispensed in 150 μl/well portions, and the resulting plate was stirred vigorously using a plate mixer to dissolve MTT-formazan crystals completely. Thereafter, absorbance at 550 nm was measured using a microplate spectrophotometer M-SPmax250 (manufactured by Wako Pure Chemical Industries). The cell growth inhibition activity was shown by the 50% inhibitory concentration IC50

The test system of data set [2] is human cystocarcinoma T24. As to the kind of experiment: Growth inhibition against human cystocarcinoma T24 cells (MTT). It counts as cell-based. The note with it: T-24, 72 hours. As to the method:
as §1, §2

Data set [3] concerns human renal carcinoma ACHN. The data set is described as follows: Growth inhibition against human renal carcinoma ACHN cells (MTT). It counts as cell-based. The note with it: 72 hours. As to the method: as §1, §2
Data set [4] can be described thus: Solubility. Type of data set: physicochemical.
Data set [5] concerns Staphylococcus aureus ATCC 6538P. As to the kind of experiment: Antibacterial activity by agar dilution method. It counts as cell-based. The note with it: ATCC6538P, pH 7, read-out: Minimum inhibitory concentration. As to the method: (§3) Antibacterial activity of UCS1025A and UCS1025B against various bacteria were measured.
(§4) The antibacterial activity was measured by an agar dilution method on media (pH 7) -composed of 3 g/L of Bacto-tryptone (manufactured by Difco), 3 g/L of meat extract, 1 g/L of yeast extract, 1 g/L of glucose and 16 g/L of agar. The antibacterial activity was shown by minimum inhibitory concentration (MIC).
(In general: In agar dilution the substance is mixed into plates at graded concentrations.)

Data set [6] deals with Bacillus subtilis No. 10707. The data set is described as follows: Antibacterial activity by agar dilution method. Type of data set: cell-based. The note with it: pH 7, read-out: Minimum inhibitory concentration. As to the method:
as §3, §4

For data set [7], the system named is Enterococcus hirae ATCC 10541. As to the kind of experiment: Antibacterial activity by agar dilution method. Type of data set: cell-based. The note with it: ATCC10541, pH 7, read-out: Minimum inhibitory concentration. As to the method: as §3, §4
The subject of data set [8] is Proteus vulgaris ATCC 6897. The data set is described as follows: Antibacterial activity by agar dilution method. It counts as cell-based. The note with it: ATCC6897, pH 7, read-out: Minimum inhibitory concentration. As to the method:
as §3, §4

Data set [9] relates to human mammary carcinoma MCF-7. The data set is described as follows: Growth inhibition against human mammary carcinoma MCF-7 cells (MTT). The note with it: MCF7, 72 hours. It counts as cell-based. As to the method:
as §1, §2

Setting [10] is: in methanol, ethyl acetate, chloroform, dimethylsulfoxide (DMSO).

Converted amounts (≈) assume the structure as drawn.

In the case of `CC1C=CC2CCCCC2C1C(=O)C1C(=O)N2CCC3C(=O)OC1C32O` (centres unmarked) [UCS1025A], the IC50 (commonly the concentration needed to halve the response being measured) in [1] turned out to be 55 µM; in data set [2], 51 µM; in data set [3], 58 µM; in data set [9] it was 21 µM. For the same molecule, the Solubility entry was “hardly soluble” in [4] (in hexane) and “Soluble” in data set [4] (setting [10]). The MIC in data set [5] turned out to be 1.3 µg/mL (≈ 3.62 µM); in [6], 1.3 µg/mL (≈ 3.62 µM); in data set [7], 1.3 µg/mL (≈ 3.62 µM); in data set [8], 5.2 µg/mL (≈ 14.5 µM).

For `CC1C=CC2CCCCC2C1C(=O)C1(O)C(=O)N2CCC3C(=O)OC1C32O` (centres unmarked) [UCS1025B], the concentration for half-maximal inhibition (IC50) in [1], in [2], in data set [3] and in [9] was > 100 µM throughout. For the same molecule, the Solubility entry in [4] (in hexane) is recorded as “hardly soluble”; in data set [4] (setting [10]) it was “Soluble”. Besides, the MIC in [5] was found to be 42 µg/mL (≈ 112 µM); in data set [6], 83 µg/mL (≈ 221 µM); in data set [7] it was 42 µg/mL (≈ 112 µM); in data set [8], 83 µg/mL (≈ 221 µM).

The record behind these values is patent US5798379A, “UCS1025 compounds” (Kyowa Hakko Kogyo Co., Ltd., priority 1996, dated 1998).
